The values that follow come from ChEMBL document CHEMBL1201862, “PubChem BioAssay data set” (2004).

Active and inactive are the calls of the source.

In experiment [1] the target is Beta-2 adrenergic receptor (Homo sapiens, UniProt P07550). The experiment can be described thus: beta2AR agonists driving receptor internalization, dose response, cell-based, FAP fluorogen, flow cytometry, cherry pick 1 (AID 588763). Format: functional. Background: In flow cytometry, cells or beads pass a laser one at a time.
Chain of Beta-2 adrenergic receptor (P07550 whole entry): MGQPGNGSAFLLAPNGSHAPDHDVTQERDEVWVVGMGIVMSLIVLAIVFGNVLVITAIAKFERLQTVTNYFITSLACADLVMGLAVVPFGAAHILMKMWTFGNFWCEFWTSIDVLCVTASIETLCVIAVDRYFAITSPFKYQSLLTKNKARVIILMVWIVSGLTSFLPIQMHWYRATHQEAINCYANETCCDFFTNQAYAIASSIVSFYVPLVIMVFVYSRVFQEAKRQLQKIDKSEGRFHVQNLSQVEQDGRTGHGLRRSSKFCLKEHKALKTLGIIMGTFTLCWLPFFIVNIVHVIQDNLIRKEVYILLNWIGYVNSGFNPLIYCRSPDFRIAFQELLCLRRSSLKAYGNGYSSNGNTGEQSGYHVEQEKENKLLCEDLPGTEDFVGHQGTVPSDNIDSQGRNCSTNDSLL
Experiment [2] has as its system BJ. Description: cytotoxicity toward BJ-TERT-LT-ST fibroblasts, dose response, cell-based, RAS-independent, luminescence (AID 1935).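 Also: BJ fibroblasts immortalized with TERT plus LT and ST oncogenes.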 Format: functional. Conditions: Homo sapiens.
Experiment [3] deals with BJ. Description: cytotoxicity toward BJ-TERT fibroblasts, dose response, cell-based, RAS-independent, luminescence (AID 1933). Conditions: Homo sapiens. Format: functional.
The subject of another experiment is HEK293. The experiment can be described thus: cells. As to conditions: Homo sapiens.
Experiment [4] relates to BJ. The experiment can be described thus: cells. Format: functional, cell-based. Conditions: Homo sapiens.
A short description of experiment [5]: cytotoxicity toward DRD oncogenic fibroblasts, dose response, cell-based, non-viral oncogenic, luminescence (AID 1934). Format: functional. Conditions: Homo sapiens.
In experiment [6] the target is T1, Nucleotide-binding oligomerization domain-containing protein 1 (Homo sapiens, UniProt Q9Y239).
T1 sequence (Q9Y239 whole entry): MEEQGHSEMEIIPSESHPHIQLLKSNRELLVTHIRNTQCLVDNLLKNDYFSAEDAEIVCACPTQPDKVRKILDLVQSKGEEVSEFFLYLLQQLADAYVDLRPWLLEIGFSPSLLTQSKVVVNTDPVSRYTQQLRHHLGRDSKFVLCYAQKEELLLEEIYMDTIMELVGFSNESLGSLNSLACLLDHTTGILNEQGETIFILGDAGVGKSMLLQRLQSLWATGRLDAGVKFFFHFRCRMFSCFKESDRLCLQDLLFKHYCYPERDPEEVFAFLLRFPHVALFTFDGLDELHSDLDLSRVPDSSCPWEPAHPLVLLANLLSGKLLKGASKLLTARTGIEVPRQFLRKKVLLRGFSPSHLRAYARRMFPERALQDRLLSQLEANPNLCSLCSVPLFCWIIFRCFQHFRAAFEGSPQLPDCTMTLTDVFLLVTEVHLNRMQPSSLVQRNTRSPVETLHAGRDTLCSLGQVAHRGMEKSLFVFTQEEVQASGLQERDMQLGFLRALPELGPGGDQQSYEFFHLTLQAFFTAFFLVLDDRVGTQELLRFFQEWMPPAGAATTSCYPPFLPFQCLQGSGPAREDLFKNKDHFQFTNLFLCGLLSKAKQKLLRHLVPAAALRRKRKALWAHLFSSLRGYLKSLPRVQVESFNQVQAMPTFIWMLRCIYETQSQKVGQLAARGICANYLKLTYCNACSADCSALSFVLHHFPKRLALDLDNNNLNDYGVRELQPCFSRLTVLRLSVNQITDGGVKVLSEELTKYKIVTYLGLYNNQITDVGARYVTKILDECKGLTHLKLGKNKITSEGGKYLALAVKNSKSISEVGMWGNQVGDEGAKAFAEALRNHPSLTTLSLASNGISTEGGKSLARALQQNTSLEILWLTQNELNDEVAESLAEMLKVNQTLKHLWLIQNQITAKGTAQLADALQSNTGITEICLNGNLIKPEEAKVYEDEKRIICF
The experiment can be described thus: NOD1 signaling inhibitors, SAR follow-up, revised (AID 2333). Format: functional.

The target in another experiment is Tumor necrosis factor (Homo sapiens, UniProt P01375). The experiment can be described thus: TNFa-triggered NF-kB activation inhibitors, SAR follow-up, cell-based, revised (AID 2337). Format: functional.
Chain of Tumor necrosis factor (P01375 whole entry): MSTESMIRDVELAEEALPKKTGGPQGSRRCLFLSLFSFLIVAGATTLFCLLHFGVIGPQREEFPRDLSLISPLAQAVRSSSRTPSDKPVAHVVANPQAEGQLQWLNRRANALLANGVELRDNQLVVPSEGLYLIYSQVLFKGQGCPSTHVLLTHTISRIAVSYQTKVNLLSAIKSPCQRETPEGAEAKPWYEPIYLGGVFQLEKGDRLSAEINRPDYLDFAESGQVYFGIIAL
The test system of the next experiment is Streptococcus. Description: Group A Streptococcus viability loss, dose response, counter-screen for streptokinase expression inhibitor project, luminescence, BacTiterGlo (AID 1915).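 Also: potency for reduction of bacterial viability or growth.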 Format: functional, organism-based. In general terms: A counterscreen serves to expose hits that act by an unwanted route or on another target.
The next experiment has as its target T2, Streptokinase A (Streptococcus pyogenes serotype M1, UniProt P10520).
T2 sequence (P10520 whole entry): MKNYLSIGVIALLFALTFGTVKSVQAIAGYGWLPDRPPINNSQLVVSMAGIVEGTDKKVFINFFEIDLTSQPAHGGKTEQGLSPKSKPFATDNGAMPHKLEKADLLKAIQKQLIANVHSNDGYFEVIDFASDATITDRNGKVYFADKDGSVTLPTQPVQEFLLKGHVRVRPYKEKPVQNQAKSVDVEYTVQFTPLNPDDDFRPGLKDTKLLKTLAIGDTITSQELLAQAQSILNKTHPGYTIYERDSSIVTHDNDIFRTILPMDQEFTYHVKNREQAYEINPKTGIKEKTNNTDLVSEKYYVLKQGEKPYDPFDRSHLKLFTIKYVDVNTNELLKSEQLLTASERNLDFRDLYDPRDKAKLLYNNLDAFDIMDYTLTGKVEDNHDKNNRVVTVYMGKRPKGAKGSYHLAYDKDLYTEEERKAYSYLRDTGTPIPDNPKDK
The experiment can be described thus: S. pyogenes streptokinase expression inhibitors, potency, dose response, plasminogen activation absorbance, OD405 (AID 1914).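 Also: secreted streptokinase activity via plasminogen activation per viability signal from cell pellet.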 Format: functional, Streptococcus pyogenes M1 GAS.

The next experiment deals with INS1. Description: beta cell apoptosis inhibitors, cytokine rescue, dose response, luminescence, retest (AID 449756).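 Also: cell death triggered by IL-1 beta plus TNF-alpha plus IFN-gamma mixture; protective hits raise ATP signal compared with cytokine alone wells.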 Format: functional, cell-based. Conditions: Rattus norvegicus.
The subject of experiment [7] is Streptococcus sp. 'group A'. Description: growth inhibition of control SK(-) GAS strain, dose response, counter-screen for streptokinase expression inhibitor project, luminescence, kanamycin, BacTiterGlo, confirmation (AID 1900). Format: functional, organism-based.
The target of experiment [8] is T3, Microphthalmia-associated transcription factor (Homo sapiens, UniProt O75030).
T3 sequence (O75030 whole entry): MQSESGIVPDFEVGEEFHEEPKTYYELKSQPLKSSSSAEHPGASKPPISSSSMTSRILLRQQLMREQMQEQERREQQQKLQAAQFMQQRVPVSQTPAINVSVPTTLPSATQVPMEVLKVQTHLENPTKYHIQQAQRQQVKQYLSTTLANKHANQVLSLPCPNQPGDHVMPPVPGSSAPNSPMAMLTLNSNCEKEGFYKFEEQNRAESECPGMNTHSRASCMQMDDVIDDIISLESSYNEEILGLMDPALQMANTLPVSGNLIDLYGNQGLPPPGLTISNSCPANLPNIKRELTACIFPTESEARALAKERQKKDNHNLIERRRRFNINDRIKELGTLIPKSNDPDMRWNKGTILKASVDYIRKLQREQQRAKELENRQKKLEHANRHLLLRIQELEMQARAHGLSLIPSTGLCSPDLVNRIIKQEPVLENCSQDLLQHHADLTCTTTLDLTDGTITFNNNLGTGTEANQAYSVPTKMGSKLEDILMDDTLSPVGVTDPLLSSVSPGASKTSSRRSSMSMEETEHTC
The experiment can be described thus: TRPM1 promoter luciferase signal decrease, dose response, MITF inhibitor project, cell-based, SK-MEL-5, cherry-picked, set 3 (AID 493073).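 Also: SK-MEL-5 melanoma cells with luciferase driven by the MITF target TRPM1 promoter.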 Format: functional.

The target of experiment [9] is T4, Apoptotic protease-activating factor 1 (Homo sapiens, UniProt O14727).
T4 sequence (O14727 whole entry): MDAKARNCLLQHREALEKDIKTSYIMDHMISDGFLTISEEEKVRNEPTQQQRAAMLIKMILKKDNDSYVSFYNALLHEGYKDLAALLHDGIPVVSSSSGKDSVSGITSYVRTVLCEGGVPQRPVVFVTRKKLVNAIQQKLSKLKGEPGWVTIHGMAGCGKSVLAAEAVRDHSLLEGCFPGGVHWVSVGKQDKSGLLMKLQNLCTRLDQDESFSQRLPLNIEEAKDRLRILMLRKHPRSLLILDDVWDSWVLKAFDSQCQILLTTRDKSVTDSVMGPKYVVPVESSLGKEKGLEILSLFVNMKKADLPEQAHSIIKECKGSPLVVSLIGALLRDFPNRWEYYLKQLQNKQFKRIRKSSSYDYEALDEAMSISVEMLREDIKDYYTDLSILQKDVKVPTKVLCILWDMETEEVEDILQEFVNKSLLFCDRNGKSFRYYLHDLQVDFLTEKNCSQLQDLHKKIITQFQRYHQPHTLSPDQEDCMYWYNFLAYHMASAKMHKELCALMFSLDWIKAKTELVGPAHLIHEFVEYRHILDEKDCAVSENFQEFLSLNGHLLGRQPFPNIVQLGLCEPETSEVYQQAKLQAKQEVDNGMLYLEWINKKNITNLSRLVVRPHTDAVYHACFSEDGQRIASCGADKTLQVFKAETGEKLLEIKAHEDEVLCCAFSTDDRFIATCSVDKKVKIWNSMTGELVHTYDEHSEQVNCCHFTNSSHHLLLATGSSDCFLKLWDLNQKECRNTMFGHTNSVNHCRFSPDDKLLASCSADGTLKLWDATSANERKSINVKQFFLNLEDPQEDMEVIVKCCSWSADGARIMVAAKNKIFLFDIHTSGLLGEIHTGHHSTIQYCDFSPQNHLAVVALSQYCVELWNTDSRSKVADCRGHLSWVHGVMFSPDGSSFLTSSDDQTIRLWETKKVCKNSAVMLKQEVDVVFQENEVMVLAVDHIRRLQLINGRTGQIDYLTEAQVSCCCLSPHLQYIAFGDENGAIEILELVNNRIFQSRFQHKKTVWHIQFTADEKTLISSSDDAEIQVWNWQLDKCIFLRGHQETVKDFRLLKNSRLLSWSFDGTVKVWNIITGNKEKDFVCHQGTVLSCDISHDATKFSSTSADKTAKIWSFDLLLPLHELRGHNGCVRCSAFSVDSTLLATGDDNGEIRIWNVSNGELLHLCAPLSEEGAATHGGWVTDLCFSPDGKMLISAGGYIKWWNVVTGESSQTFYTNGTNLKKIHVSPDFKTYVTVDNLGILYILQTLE
Format: functional.

For experiment [10], the target named is T5, Short transient receptor potential channel 4 (Mus musculus, UniProt Q9QUQ5).
T5 sequence (Q9QUQ5 whole entry): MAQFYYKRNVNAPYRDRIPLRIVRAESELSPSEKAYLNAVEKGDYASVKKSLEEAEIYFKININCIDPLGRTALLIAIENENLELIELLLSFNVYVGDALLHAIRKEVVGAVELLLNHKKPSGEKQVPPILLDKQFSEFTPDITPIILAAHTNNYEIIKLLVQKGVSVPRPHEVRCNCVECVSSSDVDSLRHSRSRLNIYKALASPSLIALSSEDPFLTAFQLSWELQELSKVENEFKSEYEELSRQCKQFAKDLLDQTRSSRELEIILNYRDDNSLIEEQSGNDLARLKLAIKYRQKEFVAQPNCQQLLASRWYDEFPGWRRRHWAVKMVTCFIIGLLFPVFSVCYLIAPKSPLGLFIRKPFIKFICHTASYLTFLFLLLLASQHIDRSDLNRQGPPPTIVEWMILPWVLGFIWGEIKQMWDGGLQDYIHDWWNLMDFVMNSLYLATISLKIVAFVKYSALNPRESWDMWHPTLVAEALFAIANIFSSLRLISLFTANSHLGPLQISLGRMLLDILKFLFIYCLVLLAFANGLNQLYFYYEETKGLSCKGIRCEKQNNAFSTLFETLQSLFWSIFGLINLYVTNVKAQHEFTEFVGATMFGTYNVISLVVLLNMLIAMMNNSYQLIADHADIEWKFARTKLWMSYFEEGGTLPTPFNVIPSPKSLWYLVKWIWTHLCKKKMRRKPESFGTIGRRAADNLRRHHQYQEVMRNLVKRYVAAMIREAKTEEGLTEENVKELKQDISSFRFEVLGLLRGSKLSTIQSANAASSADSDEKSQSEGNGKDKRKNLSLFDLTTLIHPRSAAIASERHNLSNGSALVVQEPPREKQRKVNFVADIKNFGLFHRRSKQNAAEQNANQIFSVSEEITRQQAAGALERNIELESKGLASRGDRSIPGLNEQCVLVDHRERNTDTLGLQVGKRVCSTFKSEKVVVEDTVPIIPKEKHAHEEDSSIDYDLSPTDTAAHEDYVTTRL
The experiment can be described thus: mouse TRPC4 channel inhibitors, dose response, cell-based, HEK293 TRPC4/mu-opioid, Fluo-4 calcium (AID 434942).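 Also: potency of inhibitors blocking the TRPC4 calcium response.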 Format: functional.

For the next experiment, the target named is Nonstructural protein 1 (Influenza A virus, UniProt Q194T2). Format: functional, Influenza A virus (A/California/07/2009(H1N1)).
Chain of Nonstructural protein 1 (Q194T2 whole entry): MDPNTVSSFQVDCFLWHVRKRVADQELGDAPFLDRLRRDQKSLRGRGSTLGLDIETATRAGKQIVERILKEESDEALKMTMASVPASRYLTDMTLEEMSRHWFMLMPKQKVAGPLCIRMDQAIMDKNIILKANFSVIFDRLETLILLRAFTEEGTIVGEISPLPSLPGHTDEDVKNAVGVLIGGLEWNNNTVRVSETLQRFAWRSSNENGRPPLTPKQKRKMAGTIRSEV

In general, EC50 refers to the midpoint of the concentration-response curve. With `CCc1ccc(CNC(=O)c2ccc(NC(=O)C3=CSCCO3)cc2)cc1`, in experiment [1], the 50% effective concentration (EC50) is 0.0949 µM (active).
As a reminder, the IC50 is the concentration that inhibits the measured activity by half. As for `O=C(Nc1ccc(S(=O)(=O)N2CCCCC2)cc1)c1ccc(CN2CCc3ccccc3C2)cc1`, the half-maximal effective concentration (EC50) in the experiment with BJ [2] is > 150 µM (not active); with BJ [3], 23.9 µM (active); with BJ [4], 51.8 µM (active); in experiment [5] it was 22 µM (active). For the same molecule, the concentration for half-maximal inhibition (IC50) in the experiment with HEK293 was 19.5 µM (active); in experiment [6], 0.432 µM (active); on Tumor necrosis factor, 0.616 µM (active).
By AC50 is commonly meant the concentration giving half of the maximal activity seen. As for `CCCCCn1cc[n+](C2=C([N-]S(=O)(=O)c3ccccc3)C(=O)c3ccccc3C2=O)c1`, the EC50 in the experiment with Streptococcus is 13.3 µM (active); on Streptokinase A, 3.69 µM (active); in experiment [7] it was 1.15 µM (active). The values for the AC50 (in the experiment on INS1; in experiment [8]) were 4.7 µM (active) and 5.9 µM (active), respectively. In experiment [9], the IC50 is 13.8 µM (active).
Regarding `O=C(CN1CCCCC1)N1c2ccccc2Oc2ccccc21`, the EC50 in [10] is 6.68 µM (active).
Same read-out and setting: in the case of `CC(C)(c1ccccc1)c1ccc(OCCCNCCO)cc1` it was 4.22 µM (active); in that of `COCCn1c(SCc2cc(C(C)=O)ccc2OC)nc2cc(Cl)ccc2c1=O`, 3.35 µM (active).
For the molecule `CCC(=O)Nc1ccc(-c2nn3c(C)nnc3s2)cc1C`, in experiment [1], the EC50 was 3.12 µM (active).
`O=C1C(NS(=O)(=O)c2ccc(Cl)cc2)=C(N2CCCCC2)C(=O)c2ccccc21`: the 50% inhibitory concentration (IC50) was 11.4 µM (active) on Nonstructural protein 1 and 30.5 µM (active) in experiment [9].
On to `COc1ccc(NC(=O)c2ccc(CN3CCCCC3)cc2)cc1`, for which the IC50 (in the experiment with HEK293; in experiment [6]; on Tumor necrosis factor) was > 20 µM (inactive) throughout.
